Here are results for 18 molecules from ChEMBL document CHEMBL1143987, “Structure and estrogenic activity of new lignans from Iryanthera lancifolia” (2008).

What all share (type): functional
Assay [1] has as its system MCF7. The assay is described as follows: Estrogenic potency in human MCF7 BUS cells assessed as drug level inducing maximal cell proliferation.
The subject of assay [2] is MCF7. The assay is described as follows: Proliferative potency in human MCF7 BUS cells assessed as induction of maximal cell proliferation relative to 17-beta estradiol.
For assay [3], the system named is MCF7. The assay is described as follows: Proliferative effect in human MCF7 BUS cells assessed as increase in cell number relative to 17-beta estradiol. Set-up: concentration or dose not given beside the values.
Assay [4] relates to MCF7. The assay is described as follows: Proliferative effect in human MCF7 BUS cells assessed as ratio of increase in cell number in drug treated to control.

Molecules are shown by their SMILES. Active and inactive are the calls of the source. No cut-off for these calls is given here.

Consider `C[C@H](Cc1ccc2c(c1)OCO2)[C@H](C)C(=O)c1ccc(O)cc1`, for which the MED in the assay on MCF7 [1] was 10 µM. Also, the Activity in the assay with MCF7 [2] was determined as 0.01%; with MCF7 [3], 50.1%. Besides, in the assay on MCF7 [4], the Ratio is listed as 4.51.

With `C/C=C/c1cc(OC)c2c(c1)[C@@H](C)[C@H](c1ccc(O)c(OC)c1)O2` [LICARINE A], the MED with MCF7 [1] was found to be 10 µM. Besides, the Activity in the assay on MCF7 [2] was 0.01%; in the assay with MCF7 [3], 26.4%. Also, the Ratio with MCF7 [4] was 2.8.

For the molecule `C[C@@H]([C@H](C)Cc1ccc2c(c1)OCO2)[C@H](O)c1ccc2c(c1)OCO2`, the Activity in the assay with MCF7 [2] and in the assay with MCF7 [3] was 0% each time. Further, the outcome with MCF7 [4] was inactive.

Regarding `COc1ccc(CCC(=O)c2c(O)cc(O)cc2OC)cc1`, the MED in the assay on MCF7 [1] came to 10 µM. In addition, the Activity in the assay with MCF7 [2] is listed as 0.01%; in the assay with MCF7 [3], 80.7%. In the assay with MCF7 [4], the Ratio is listed as 6.6.

In the case of `COc1cc(O)cc(O)c1C(=O)CCc1ccc2c(c1)OCO2`, in the assay with MCF7 [1], the MED came out at 10 µM. In addition, the results for the Activity in the assay on MCF7 [2] and with MCF7 [3] were 0.01% and 22.1%, respectively. The Ratio with MCF7 [4] worked out at 2.5.

`COc1cc(C(=O)[C@@H](C)[C@H](C)Cc2ccc3c(c2)OCO3)ccc1O` [OLEIFERIN D]: the MED in the assay with MCF7 [1] worked out at 10 µM. Further, the values for the Activity in the assay on MCF7 [2] and in the assay with MCF7 [3] were 0.01% and 42.8%, respectively. In addition, the Ratio in the assay on MCF7 [4] came to 4.

As for `C[C@@H]1[C@@H](c2ccc3c(c2)OCO3)c2cc3c(cc2C[C@H]1C)OCO3` [CAGAYANINE], the MED in the assay with MCF7 [1] stood at 10 µM. The Activity with MCF7 [2] amounted to 0.01%; in the assay on MCF7 [3], 17.9%. In addition, in the assay on MCF7 [4], the Ratio stood at 2.2.

As to `C/C(=C/c1ccc(O)cc1)C(C)Cc1ccc(O)cc1` (stereo unspecified), the MED in the assay on MCF7 [1] was determined as 10 µM. Also, the Activity is reported as 0.01% in the assay with MCF7 [2] and 73.7% in the assay on MCF7 [3]. Moreover, the Ratio with MCF7 [4] was 6.2.

In the case of `C[C@H](Cc1ccc(O)cc1)[C@H](C)Cc1ccc2c(c1)OCO2`, in the assay on MCF7 [1], the MED was 10 µM. Moreover, the Activity in the assay with MCF7 [2] stood at 0.01%; with MCF7 [3], 68.7%. The Ratio in the assay on MCF7 [4] is 5.8.

Regarding `CCO[C@@H](c1ccc2c(c1)OCO2)[C@@H](C)[C@H](C)Cc1ccc2c(c1)OCO2`, the MED in the assay with MCF7 [1] was 10 µM. Further, the Activity is recorded as 0.01% in the assay with MCF7 [2] and 84% in the assay on MCF7 [3]. Besides, the Ratio in the assay with MCF7 [4] was 6.9.

Turning to `C[C@H](Cc1ccc2c(c1)OCO2)[C@@H](C)Cc1ccc2c(c1)OCO2` [MACHILIN A], the MED in the assay with MCF7 [1] came out at 10 µM. Also, the results for the Activity with MCF7 [2] and in the assay on MCF7 [3] were 0.01% and 13.5%, respectively. Further, in the assay on MCF7 [4], the Ratio worked out at 1.9.

Regarding `Oc1ccc2c(c1)O[C@H](c1ccc3c(c1)OCO3)CC2`, in the assay on MCF7 [1], the MED came to 10 µM. In addition, the Activity in the assay with MCF7 [2] is 0.01%; with MCF7 [3], 67.1%. In addition, in the assay with MCF7 [4], the Ratio worked out at 5.7.

With `C[C@@H]([C@H](C)Cc1ccc2c(c1)OCO2)[C@@H](O)c1ccc2c(c1)OCO2` [OLEIFERIN C], the MED with MCF7 [1] worked out at 10 µM. Also, the Activity in the assay on MCF7 [2] was found to be 0.01%; in the assay on MCF7 [3] it was 47.8%. Moreover, the Ratio in the assay with MCF7 [4] came to 4.4.

As for `COc1cc(C[C@H](C)[C@H](C)Cc2ccc3c(c2)OCO3)ccc1O` [AUSTROBAILIGNAN 6], the Activity in the assay with MCF7 [2] and in the assay with MCF7 [3] was 0% throughout. Besides, the outcome with MCF7 [4] was inactive.

Take `C[C@@H]1[C@@H](c2ccc(O)cc2)c2cc(O)ccc2C[C@H]1C`: the MED with MCF7 [1] worked out at 10 µM. For the same molecule, the Activity in the assay with MCF7 [2] was 0.01%; in the assay with MCF7 [3] it was 77.8%. The Ratio with MCF7 [4] amounted to 6.4.

For the molecule `C[C@]12CC[C@@H]3c4ccc(O)cc4CC[C@H]3[C@@H]1CC[C@@H]2O` [ESTRADIOL], the MED in the assay on MCF7 [1] was 0.001 µM. The Ratio in the assay with MCF7 [4] is 8.

For the molecule `COc1ccc([C@H]2Oc3c(OC)cc(C=O)cc3[C@@H]2C)cc1O` [PERSEAL F], the Activity in the assay with MCF7 [2] and in the assay with MCF7 [3] was 0% throughout. The outcome in the assay with MCF7 [4] was inactive.

Consider `C/C=C/c1cc(OC)c2c(c1)[C@@H](C)[C@H](c1ccc3c(c1)OCO3)O2` [LICARINE B], for which the Activity in the assay on MCF7 [2] and in the assay on MCF7 [3] was 0% in each case. The outcome in the assay on MCF7 [4] was inactive.
